# Laboratory results as given in patent publication EP0051773A1, “Penicillins, their salts, process for their preparation and pharmaceutical compositions containing them” (Dr. Karl Thomae GmbH, priority 1980, dated 1982).
# How the values were obtained:
# E.coli ATCC 11 775 = test: experimental intraperitoneal infection in mice, ED50 (survival); type: in vivo, Mäuse; settings: Escherichia coli, ATCC 11 / ATCC 1175, sc, 168 h; female NMRI mice, i.p. infection, s.c. application, treated once, 7 days observation
# Protocol: Eine Reihe der erfindungsgemäßen Verbindungen wurde in vivo bei experimentellen Infektionen an Mäusen untersucht. Man verwendete als pathogene Bakterien E.coli ATCC 11 775 und Pseudomonas aeruginosa Walter. Es wurde eine intraperitoneale Infektion mit 0,2 ml einer 5%igen Mucinsuspension der Bakterien gesetzt. Dies entspricht etwa 2x10^6 Keime E.coli bzw. 8x10^5 Keime Pseudomonas/Maus. Weibliche Mäuse vom Stamm NMRI wurden in Gruppen von jeweils 10 Tieren aufgeteilt, zwei Gruppen blieben unbehandelt, die restlichen Gruppen wurden mit verschiedenen Dosen der jeweiligen erfindungsgemäßen Penicilline zur Bestimmung der ED50 (Dosis, bei der 50 % der Tiere überleben) behandelt. Bei der E.coli-Infektion wurde einmal therapiert. Bei der Pseudomonas-Infektion wurde dreimal behandelt.
# Der Beobachtungszeitraum betrug in beiden Fällen 7 Tage. Die Ergebnisse dieser Teste mit repräsentativen Vertretern der erfindungsgemäßen Penicilline sind in der Tabelle 3 dargestellt.
# [1] = tested on: Pseudomonas aeruginosa Hamburgensis; test: serial dilution test in microtiter system (bacteriostasis, MIC); type: cell-based; settings: liquid medium, 18 to 20 h at 37°C, read-out: MHK-Werte Pseud. aerug. Hbg.
# Protocol: (§1) Für die Untersuchungen wurde die Methode des Reihenverdünnungstestes im Mikrotitersystem angewandt. Die Prüfung der Substanzen auf Bakteriostase erfolgte in flüssigem Medium. Es wurde die Bakteriostasewirkung bei folgenden Konzentrationen untersucht.
# (§2) Es wurde ein Nährboden folgender Zusammensetzung benutzt: 10 g Pepton, 8 g Fleischextrakt-Oxoid, 3 g Natriumschlorid, 2 g sek. Natriumphosphat werden mit dest. Wasser auf 1000 ml aufgefüllt (pH 7,2-7,4). Lediglich bei der Testung gegen Streptokokken wurde 1% Glucose hinzugefügt. Das Alter der Primärkulturen betrug etwa 20 Stunden. Die Einstellung der Keimsuspension erfolgte am Photometer (nach "Eppendorf") (Reagenzglas-Durchmesser 14 mm, Filter 546 nm) anhand der Trübung einer Bariumsulfat-Vergleichssuspension, die durch eine Bariumsulfat-Aufschwemmung erzeugt wurde, welche durch die Zugabe von 3,0 ml 1%ige Bariumchloridlösung in 97 ml 1%ige Schwefelsäure entstand. Nach der Einstellung wurden Streptococcus Aronson im Verhältnis 1:15 und die übrigen Testkeime im Verhältnis 1:1500 mit einer Kochsalzlösung weiter verdünnt.
# (§3) 16 mg der jeweiligen Substanz wurden in 10 ml-Meßkolben eingewogen und mit dem Lösungsmittel bis zur Marke aufgefüllt. Die weitere Verdünnungsreihe wurde mit destilliertem Wasser oder dem jeweiligen Lösungsmittel hergestellt.
# (§4) Die Vertiefungen der Mikrotiterplatten wurden mit 0,2 ml Nährmedium, 0,01 ml der entsprechenden Substanzverdünnung und mit einem Tropfen Keimsuspension (0,01 ml) beschickt und 18 bis 20 Stunden bei 37°C bebrütet. Eine Lösungsmittelkontrolle wurde stets mitgeführt.
# (§5) Die Ablesung wurde makroskopisch vorgenommen, wobei die jeweilige Grenkonzentration (= niedrigste noch bakteriostatisch wirksame Konzentration) ermittelt wurde.
# (§6) Als Testorganismen wurden benützt: - Staphylococcus aureus SG 511, Escherichia coli ATCC 11 775, Pseudomonas aeruginosa Hamburgensis und Walter, Serratia marcescens ATCC 13 880, Klebsiella pneumoniae ATCC 10 031 und BC 6, Proteus mirabilis Hamburgensis, Proteus rettgeri BC 7 und Enterobacter cloacae ATCC 13 047.
# (§7) In der folgenden Tabelle 2 sind die ermittelten minimalen Hemmkonzentrationen (MIC) für typische Vertreter der erfindungsgemäßen Verbindungen aufgeführt, wobei sich die Ziffern auf die Penicilline der Tabelle 1 Seite 18 beziehen.
# [2] = tested on: Klebsiella pneumoniae BC 6; test: as above; type: cell-based; settings: BC6, liquid medium, 18 to 20 h at 37°C, read-out: MHK-Werte Kl. pneum. BC 6
# Protocol: as §1, §2, §3, §4, §5, §6, §7
# [3] = tested on: Enterobacter cloacae ATCC 13 047; test: as above; type: cell-based; settings: ATCC13, liquid medium, 18 to 20 h at 37°C, read-out: MHK-Werte Eb. cloacae 13 047
# Protocol: as §1, §2, §3, §4, §5, §6, §7
# [4] = tested on: Proteus mirabilis Hamburgensis; test: as above; type: cell-based; settings: liquid medium, 18 to 20 h at 37°C, read-out: MHK-Werte Prot. mir. Hbg.
# Protocol: as §1, §2, §3, §4, §5, §6, §7
# [5] = tested on: Staphylococcus aureus SG 511; test: as above; type: cell-based; settings: SG511, liquid medium, 18 to 20 h at 37°C, read-out: MHK-Werte Staph. aureus SG 511
# Protocol: as §1, §2, §3, §4, §5, §6, §7
# [6] = tested on: Pseudomonas aeruginosa Walter; test: as above; type: cell-based; settings: liquid medium, 18 to 20 h at 37°C, read-out: MHK-Werte Pseud. aerug. Walter
# Protocol: as §1, §2, §3, §4, §5, §6, §7
# Proteus rettgeri BC 7 = test: as above; type: cell-based; settings: Providencia rettgeri, BC7; liquid medium, 18 to 20 h at 37°C; read-out: MHK-Werte Prot. rettg. BC 7
# Protocol: as §1, §2, §3, §4, §5, §6, §7
# [7] = tested on: Serratia marcescens ATCC 13 880; test: as above; type: cell-based; settings: ATCC13, liquid medium, 18 to 20 h at 37°C, read-out: MHK-Werte Serr. marcesc. ATCC 13 880
# Protocol: as §1, §2, §3, §4, §5, §6, §7
# [8] = tested on: Klebsiella pneumoniae ATCC 10 031; test: as above; type: cell-based; settings: ATCC10, liquid medium, 18 to 20 h at 37°C, read-out: MHK-Werte Kl. pneum. ATCC 10 031
# Protocol: as §1, §2, §3, §4, §5, §6, §7
# [9] = tested on: Escherichia coli ATCC 11 775; test: as above; type: cell-based; settings: ATCC11, liquid medium, 18 to 20 h at 37°C, read-out: MHK-Werte E.coli ATCC 11 755
# Protocol: as §1, §2, §3, §4, §5, §6, §7
MIC [1],MIC [2],MIC [3],MIC [4],MIC [5],MIC [6],MIC (Proteus rettgeri BC 7),MIC [7],MIC [8],MIC [9],SMILES,ED50 (E.coli ATCC 11 775)
2 µg/mL,4 µg/mL,2 µg/mL,0.06 µg/mL,0.5 µg/mL,2 µg/mL,1 µg/mL,0.5 µg/mL,4 µg/mL,0.5 µg/mL,CC(=O)Oc1ccc(CNc2ncc(NC(=O)NC(C(=O)N[C@@H]3C(=O)N4[C@@H]3SC(C)(C)[C@@H]4C(=O)O)c3ccc(O)cc3)c(O)n2)cc1 (stereo partly drawn) [Verbindung 59],
2 µg/mL,2 µg/mL,1 µg/mL,0.25 µg/mL,0.25 µg/mL,2 µg/mL,0.5 µg/mL,0.5 µg/mL,2 µg/mL,0.25 µg/mL,CC1(C)S[C@@H]2[C@H](NC(=O)C(NC(=O)Nc3cnc(NCc4ccc(F)cc4)nc3O)c3ccc(O)cc3)C(=O)N2[C@H]1C(=O)O (stereo partly drawn) [Verbindung 60],
2 µg/mL,2 µg/mL,1 µg/mL,0.25 µg/mL,0.25 µg/mL,2 µg/mL,0.5 µg/mL,0.5 µg/mL,1 µg/mL,0.25 µg/mL,CC1(C)S[C@@H]2[C@H](NC(=O)C(NC(=O)Nc3cnc(NCc4ccccc4)nc3O)c3ccccc3)C(=O)N2[C@H]1C(=O)O (stereo partly drawn) [Verbindung 61],

# The remaining lines, values behind:
SMILES,MIC [1],MIC [2],MIC [3],MIC [4],MIC [5],MIC [6],MIC (Proteus rettgeri BC 7),MIC [7],MIC [8],MIC [9],ED50 (E.coli ATCC 11 775)
CCCCNS(=O)(=O)c1ccc(Nc2ncc(NC(=O)N[C@@H](C(=O)N[C@@H]3C(=O)N4[C@@H]3SC(C)(C)[C@@H]4C(=O)O)c3ccc(O)cc3)c(O)n2)cc1 [Verbindung 20],,,,,,,,,,,6.6 mg/kg
CC1(C)SC2C(NC(=O)C(NC(=O)Nc3cnc(Nc4ccc(S(C)(=O)=O)cc4)nc3O)c3ccc(O)c(Cl)c3)C(=O)N2C1C(=O)O (stereo not drawn) [Verbindung 25],2 µg/mL,1 µg/mL,4 µg/mL,0.12 µg/mL,0.25 µg/mL,2 µg/mL,0.5 µg/mL,0.25 µg/mL,1 µg/mL,0.25 µg/mL,
CCCCS(=O)(=O)c1ccc(Nc2ncc(NC(=O)NC(C(=O)NC3C(=O)N4C3SC(C)(C)C4C(=O)O)c3ccc(O)cc3)c(O)n2)cc1 (stereo not drawn) [Verbindung 32],2 µg/mL,0.5 µg/mL,1 µg/mL,0.06 µg/mL,0.12 µg/mL,1 µg/mL,0.25 µg/mL,0.12 µg/mL,1 µg/mL,0.12 µg/mL,
CC1(C)SC2C(NC(=O)C(NC(=O)Nc3cnc(Nc4ccc(C(N)=O)cc4)nc3O)c3ccc(O)c(Cl)c3)C(=O)N2C1C(=O)O (stereo not drawn) [Verbindung 35],2 µg/mL,4 µg/mL,4 µg/mL,0.25 µg/mL,0.5 µg/mL,4 µg/mL,0.5 µg/mL,0.5 µg/mL,4 µg/mL,0.5 µg/mL,
CC1(C)SC2C(NC(=O)C(NC(=O)Nc3cnc(Nc4ccc(S(N)(=O)=O)c(O)c4)nc3O)c3ccc(O)c(Cl)c3)C(=O)N2C1C(=O)O (stereo not drawn) [Verbindung 49],2 µg/mL,1 µg/mL,1 µg/mL,0.12 µg/mL,0.25 µg/mL,2 µg/mL,0.5 µg/mL,0.25 µg/mL,1 µg/mL,0.25 µg/mL,
CC1(C)S[C@@H]2[C@H](NC(=O)C(NC(=O)Nc3cnc(Nc4ccc(C(N)=O)c(C(N)=O)c4)nc3O)c3ccc(O)cc3)C(=O)N2[C@H]1C(=O)O (stereo partly drawn) [Verbindung 55],1 µg/mL,4 µg/mL,2 µg/mL,0.12 µg/mL,0.25 µg/mL,1 µg/mL,0.5 µg/mL,0.25 µg/mL,2 µg/mL,0.25 µg/mL,
